Measured values as given in US20250382344A1, “Soluble GLP1/GIP/NPY2 Receptor Triple Agonists” (Boehringer Ingelheim International GmH, priority 2024, published 2025).
Read-outs that look alike come from different tables or passages of the source.

Columns and labels:
[1] = Solubility in 0.1 M phosphate buffer at pH 7; assay type: physicochemical; conditions: 0.1 M phosphate buffer at pH 7, 10 mg/mL final peptide concentration, shaking 2 hours at room temperature, peptides as TFA-salts; measured sample pH 6.5-7.0
[2] = target: T1, hGIPR (Homo sapiens, UniProt P48546); test: hGIPR CreLuc assay in 0.5% and 100% plasma (CHO CRE-luciferase reporter cells); assay type: cell-based
T1 construct: expressed in transfected cells; host or cells: CHO CRE-luciferase reporter cells
T1 sequence (P48546 22-466): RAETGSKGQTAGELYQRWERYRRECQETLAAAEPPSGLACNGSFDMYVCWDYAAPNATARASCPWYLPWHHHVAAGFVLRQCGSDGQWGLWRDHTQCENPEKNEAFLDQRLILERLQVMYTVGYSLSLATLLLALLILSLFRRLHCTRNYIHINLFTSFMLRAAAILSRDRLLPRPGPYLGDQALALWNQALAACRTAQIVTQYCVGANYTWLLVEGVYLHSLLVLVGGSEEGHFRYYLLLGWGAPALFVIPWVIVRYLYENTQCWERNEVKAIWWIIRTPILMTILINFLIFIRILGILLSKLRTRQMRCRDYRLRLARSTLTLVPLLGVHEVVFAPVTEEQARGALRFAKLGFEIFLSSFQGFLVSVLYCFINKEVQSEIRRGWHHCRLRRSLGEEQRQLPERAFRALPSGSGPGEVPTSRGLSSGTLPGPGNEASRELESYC

[3] = 0.5% human plasma, read-out: hGIPR 0.5% hP

solubility at 2 h [1] [µg/mL] | EC50 [2, 3] [nM] | Structure (SMILES) | EC50 ([2]; hGIPR 0.5% hP (nM), 0.5% human plasma) [nM] | EC50 ([2]; hGIPR 100% hP (nM), 100% human plasma) [nM]
3700 | 0.4 | CC[C@H](C)[C@H](NC(=O)[C@H](CC(C)C)NC(=O)[C@H](Cc1c[nH]cn1)NC(=O)[C@H](CCCNC(=N)N)NC(=O)[C@@H](NC(=O)[C@H](Cc1ccccc1)NC(=O)[C@H](C)NC(=O)[C@H](C)NC(=O)[C@H](CCC(N)=O)NC(=O)[C@H](C)NC(=O)[C@H](CCC(N)=O)NC(=O)[C@H](CCCCN)NC(=O)[C@H](CCC(=O)O)NC(=O)[C@H](CC(C)C)NC(=O)C(C)(C)NC(=O)[C@@H](NC(=O)[C@H](CO)NC(=O)[C@H](Cc1ccc(O)cc1)NC(=O)[C@H](CC(=O)O)NC(=O)[C@H](CO)NC(=O)[C@@H](NC(=O)[C@H](Cc1ccccc1)NC(=O)[C@@H](NC(=O)CNC(=O)[C@H](CCC(=O)O)NC(=O)C(C)(C)NC(=O)[C@@H](N)Cc1ccc(O)cc1)[C@@H](C)O)[C@@H](C)O)[C@@H](C)CC)C(C)C)C(=O)N[C@@H](CC(N)=O)C(=O)N[C@@H](CCCCNC(=O)[C@@H](N)CCCCNC(=O)CC[C@H](NC(=O)CC[C@H](NC(=O)CC[C@H](NC(=O)CC[C@H](NC(=O)CC[C@H](NC(=O)CC[C@H](NC(=O)CCCCCCCCCCCCCCCCC(=O)O)C(=O)O)C(=O)O)C(=O)O)C(=O)O)C(=O)O)C(=O)O)C(=O)NC(C)(C)C(=O)N[C@H](C(=O)N[C@@H](CCCNC(=N)N)C(=O)N[C@@H](CCC(N)=O)C(=O)N[C@@H](CCCNC(=N)N)C(=O)N[C@@H](Cc1ccc(O)cc1)C(N)=O)[C@@H](C)O [Compound 61, Y-Aib-E-G-T-F-T-S-D-Y-S-I-Aib-L-E-K-Q-A-Q-A-A-F-V-R-H-L-I-N-K(1,3)-Aib-T-R-Q-R-Y-NH2.C18DA-gGlu-gGlu-gGlu-gGlu-gGlu-gGlu-eLys(1,2)] |  | 
3900 | 0.7 | CC[C@H](C)[C@H](NC(=O)[C@H](CC(C)C)NC(=O)[C@H](Cc1c[nH]cn1)NC(=O)[C@H](CCCNC(=N)N)NC(=O)[C@@H](NC(=O)[C@H](Cc1ccccc1)NC(=O)[C@H](C)NC(=O)C(C)(C)NC(=O)[C@H](CCC(N)=O)NC(=O)[C@H](C)NC(=O)[C@H](CCC(N)=O)NC(=O)[C@H](CC(C)C)NC(=O)[C@H](CCC(=O)O)NC(=O)[C@H](CC(C)C)NC(=O)C(C)(C)NC(=O)[C@@H](NC(=O)[C@H](CO)NC(=O)[C@H](Cc1ccc(O)cc1)NC(=O)[C@H](CC(=O)O)NC(=O)[C@H](CO)NC(=O)[C@@H](NC(=O)[C@H](Cc1ccccc1)NC(=O)[C@@H](NC(=O)CNC(=O)[C@H](CCC(=O)O)NC(=O)C(C)(C)NC(=O)[C@@H](N)Cc1ccc(O)cc1)[C@@H](C)O)[C@@H](C)O)[C@@H](C)CC)C(C)C)C(=O)N[C@@H](CC(N)=O)C(=O)N[C@@H](CCCCNC(=O)[C@@H](N)CCCCNC(=O)CC[C@H](NC(=O)CC[C@H](NC(=O)CC[C@H](NC(=O)CC[C@H](NC(=O)CC[C@H](NC(=O)CC[C@H](NC(=O)CCCCCCCCCCCCCCCCC(=O)O)C(=O)O)C(=O)O)C(=O)O)C(=O)O)C(=O)O)C(=O)O)C(=O)NC(C)(C)C(=O)N[C@H](C(=O)N[C@@H](CCCNC(=N)N)C(=O)N[C@@H](CCC(N)=O)C(=O)N[C@@H](CCCNC(=N)N)C(=O)N[C@@H](Cc1ccc(O)cc1)C(N)=O)[C@@H](C)O [Compound 65, Y-Aib-E-G-T-F-T-S-D-Y-S-I-Aib-L-E-L-Q-A-Q-Aib-A-F-V-R-H-L-I-N-K(1,3)-Aib-T-R-Q-R-Y-NH2.C18DA-gGlu-gGlu-gGlu-gGlu-gGlu-gGlu-eLys(1,2)] |  | 
5000 | 0.2 | CC[C@H](C)[C@H](NC(=O)[C@H](CC(C)C)NC(=O)[C@H](Cc1c[nH]cn1)NC(=O)[C@H](CCCNC(=N)N)NC(=O)[C@@H](NC(=O)[C@H](Cc1ccccc1)NC(=O)[C@H](C)NC(=O)C(C)(C)NC(=O)[C@H](CCC(N)=O)NC(=O)[C@H](C)NC(=O)[C@H](CCC(N)=O)NC(=O)[C@H](CCCCN)NC(=O)[C@H](CCC(=O)O)NC(=O)[C@H](CC(C)C)NC(=O)C(C)(C)NC(=O)[C@@H](NC(=O)[C@H](CO)NC(=O)[C@H](Cc1ccc(O)cc1)NC(=O)[C@H](CC(=O)O)NC(=O)[C@H](CO)NC(=O)[C@@H](NC(=O)[C@H](Cc1ccccc1)NC(=O)[C@@H](NC(=O)CNC(=O)[C@H](CCC(=O)O)NC(=O)C(C)(C)NC(=O)[C@@H](N)Cc1ccc(O)cc1)[C@@H](C)O)[C@@H](C)O)[C@@H](C)CC)C(C)C)C(=O)N[C@@H](CC(N)=O)C(=O)N[C@@H](CCCCNC(=O)[C@@H](N)CCCCNC(=O)CC[C@H](NC(=O)CC[C@H](NC(=O)CC[C@H](NC(=O)CC[C@H](NC(=O)CC[C@H](NC(=O)CC[C@H](NC(=O)CCCCCCCCCCCCCCCCC(=O)O)C(=O)O)C(=O)O)C(=O)O)C(=O)O)C(=O)O)C(=O)O)C(=O)N[C@H](C(=O)N[C@H](C(=O)N[C@@H](CCCNC(=N)N)C(=O)N[C@@H](CCC(N)=O)C(=O)N[C@@H](CCCNC(=N)N)C(=O)N[C@@H](Cc1ccc(O)cc1)C(N)=O)[C@@H](C)O)[C@@H](C)CC [Compound 66, Y-Aib-E-G-T-F-T-S-D-Y-S-I-Aib-L-E-K-Q-A-Q-Aib-A-F-V-R-H-L-I-N-K(1,3)-I-T-R-Q-R-Y-NH2.C18DA-gGlu-gGlu-gGlu-gGlu-gGlu-gGlu-eLys(1,2)] |  | 
4300 | 0.3 | CC[C@H](C)[C@H](NC(=O)[C@H](CC(C)C)NC(=O)[C@H](Cc1c[nH]cn1)NC(=O)[C@H](CCCNC(=N)N)NC(=O)[C@@H](NC(=O)[C@H](Cc1ccccc1)NC(=O)[C@H](C)NC(=O)C(C)(C)NC(=O)[C@H](CCC(N)=O)NC(=O)[C@H](C)NC(=O)[C@H](CCC(N)=O)NC(=O)[C@H](CCC(=O)O)NC(=O)[C@H](CCC(=O)O)NC(=O)[C@H](CC(C)C)NC(=O)C(C)(C)NC(=O)[C@@H](NC(=O)[C@H](CO)NC(=O)[C@H](Cc1ccc(O)cc1)NC(=O)[C@H](CC(=O)O)NC(=O)[C@H](CO)NC(=O)[C@@H](NC(=O)[C@H](Cc1ccccc1)NC(=O)[C@@H](NC(=O)CNC(=O)[C@H](CCC(=O)O)NC(=O)C(C)(C)NC(=O)[C@@H](N)Cc1ccc(O)cc1)[C@@H](C)O)[C@@H](C)O)[C@@H](C)CC)C(C)C)C(=O)N[C@@H](CC(N)=O)C(=O)N[C@@H](CCCCNC(=O)CC[C@H](NC(=O)CC[C@H](NC(=O)CC[C@H](NC(=O)CC[C@H](NC(=O)CC[C@H](NC(=O)CCCCCCCCCCCCCCCCC(=O)O)C(=O)O)C(=O)O)C(=O)O)C(=O)O)C(=O)O)C(=O)NC(C)(C)C(=O)N[C@H](C(=O)N[C@@H](CCCNC(=N)N)C(=O)N[C@@H](CCC(N)=O)C(=O)N[C@@H](CCCNC(=N)N)C(=O)N[C@@H](Cc1ccc(O)cc1)C(N)=O)[C@@H](C)O [Compound 75, Y-Aib-E-G-T-F-T-S-D-Y-S-I-Aib-L-E-E-Q-A-Q-Aib-A-F-V-R-H-L-I-N-K(1,3)-Aib-T-R-Q-R-Y-NH2.C18DA-gGlu-gGlu-gGlu-gGlu-gGlu(1,2)] |  | 

Structure (SMILES) | solubility at 2 h [1] [µg/mL] | EC50 [2, 3] [nM] | EC50 ([2]; hGIPR 0.5% hP (nM), 0.5% human plasma) [nM] | EC50 ([2]; hGIPR 100% hP (nM), 100% human plasma) [nM]
CC[C@H](C)[C@H](NC(=O)[C@H](CC(C)C)NC(=O)[C@H](Cc1c[nH]cn1)NC(=O)[C@H](CCCNC(=N)N)NC(=O)[C@@H](NC(=O)[C@H](Cc1ccccc1)NC(=O)[C@H](C)NC(=O)C(C)(C)NC(=O)[C@H](CCC(N)=O)NC(=O)[C@H](C)NC(=O)[C@H](CCC(N)=O)NC(=O)[C@H](CCCCN)NC(=O)[C@H](CCC(=O)O)NC(=O)[C@H](CC(C)C)NC(=O)C(C)(C)NC(=O)[C@@H](NC(=O)[C@H](CO)NC(=O)[C@H](CC(C)C)NC(=O)[C@H](CC(=O)O)NC(=O)[C@H](CO)NC(=O)[C@@H](NC(=O)[C@H](Cc1ccccc1)NC(=O)[C@@H](NC(=O)CNC(=O)[C@H](CCC(=O)O)NC(=O)C(C)(C)NC(=O)[C@@H](N)Cc1ccc(O)cc1)[C@@H](C)O)[C@@H](C)O)[C@@H](C)CC)C(C)C)C(=O)N[C@@H](CC(N)=O)C(=O)N[C@@H](CCCCNC(=O)CC[C@H](NC(=O)[C@@H](N)CCCCNC(=O)CC[C@H](NC(=O)CC[C@H](NC(=O)CC[C@H](NC(=O)CC[C@H](NC(=O)CC[C@H](NC(=O)CCCCCCCCCCCCCCCCCCC(=O)O)C(=O)O)C(=O)O)C(=O)O)C(=O)O)C(=O)O)C(=O)O)C(=O)NC(C)(C)C(=O)N[C@H](C(=O)N[C@@H](CCCNC(=N)N)C(=O)N[C@@H](CCC(N)=O)C(=O)N[C@@H](CCCNC(=N)N)C(=O)N[C@@H](Cc1ccc(O)cc1)C(N)=O)[C@@H](C)O [Compound 60, Y-Aib-E-G-T-F-T-S-D-L-S-I-Aib-L-E-K-Q-A-Q-Aib-A-F-V-R-H-L-I-N-K(1,3)-Aib-T-R-Q-R-Y-NH2.C20DA-gGlu-gGlu-gGlu-gGlu-gGlu-eLys-gGlu(1,2)] | 9600 |  | 0.3 | 8
